# PMC7948422, “Repurposing p97 inhibitors for chemical modulation of the bacterial ClpB–DnaK bichaperone system” (The Journal of Biological Chemistry, 2020)
# Experiments:
# ClpB E279Q/E678Q = molecular target: T1, ClpB E279Q/E678Q (Escherichia coli, UniProt P63284, E279Q/E678Q); assay: FITC-casein fluorescence anisotropy titration with ClpB E279Q/E678Q; format: binding
# T1 construct: made in house
# Procedure: To monitor interactions between casein and ClpB, we used FITC-casein and the substrate-trapping ClpB E279Q/E678Q variant ([52], [73]). The titration of FITC-casein with ClpB E279Q/E678Q in the presence of ATP or ADP and the fluorescence anisotropy measurements were performed as previously described ([65]).
# ClpB hexamers = molecular target: T2, ClpB hexamers (Escherichia coli, UniProt P63284); assay: Sedimentation velocity analytical ultracentrifugation of ClpB; settings: 50 µM DBeQ, 1 mM ATPγS, 1 mg/ml ClpB
# T2 construct: made in house
# Procedure: Protein samples (0.5 ml) of wt ClpB and its variants W462F and W543F were dialyzed against 3 changes of 1 l of buffer AUC (50-mM Tris-HCl, pH 7.4, 200-mM KCl, 20-mM MgCl2, 1-mM EDTA, 0.5-mM TCEP). After dialysis, the samples were centrifuged (15 min, 13,000 RPM, 4 °C). The supernatants were collected, and the protein concentration was determined with the Bradford assay. Sedimentation velocity experiments were performed in Beckman Optima XL-I analytical ultracentrifuge equipped with a 4-cell rotor and 2-sector cells. The ClpB samples were diluted to 1 mg/ml in the AUC buffer supplemented with DMSO (5% (v/v) final concentration) with 1-mM ATPɤS, with or without 50-μM DBeQ. Centrifugation was performed at 48,000 RPM at 20 °C. The sedimentation profiles were collected using the interference detection system and analyzed with the Origin software supplied by the instrument manufacturer using the time-derivative method of Stafford ([71]). Observed sedimentation coefficients were corrected to values corresponding to the density and viscosity of water (s20,w) using Sednterp software (www.jphilo.mailway.com) with additional corrections for the presence of 5% DMSO ([72]).
# [1] = design: method as in PMID 21383145; settings: cited from earlier work
# ClpB W543F = molecular target: T3, ClpB W543F (Escherichia coli, UniProt P63284, W543F); assay: Surface plasmon resonance, immobilized ClpB W543F; format: binding
# T3 construct: made in house
# Procedure: (§1) ClpB, DnaK, and the NBD of DnaK were extensively dialyzed against the SPR buffer (20-mM Hepes, pH 7.4, 150-mM NaCl, 20-mM MgCl2, 1-mM EDTA, 1-mM DTT). After dialysis, the protein concentration was determined by the Bradford method. The DBeQ–protein interactions were studied using a Biacore T200 instrument (GE Healthcare) at 25 °C. The proteins were diluted to 300 μg/ml in 10-mM sodium acetate buffer (pH 5 for ClpB DnaK or pH 4 for NBD) and immobilized on HC1500M sensor chips (Xantec) by standard amine coupling chemistry as described previously ([70]). A reference flow cell was created by ethyl(dimethylaminopropyl) carbodiimide/N-hydroxysuccinimide activation followed by quenching with 1 M ethanolamine (pH 9.0). Solvent correction curves were obtained at the beginning and end and after every 50 injection cycles by injecting varying DMSO concentrations (4.0, 4.4, 4.6, 4.8, 5.0, 5.2, 5.4, and 5.9% [v/v]). All experiments were performed using a flow rate of 30 μl/min.
# (§2) Binding isotherms were obtained with the ligand diluted to different concentrations in the SPR running buffer HBSMTD (20-mM Hepes, pH 7.4, 140-mM NaCl, 20-mM MgCl2, 5% (v/v) DMSO, 0.005% (v/v) Tween-20). Replicate injections were performed for all samples, and a buffer-only injection was performed for every 12 injection cycles. To test the structural integrity of ClpB after immobilization on the sensor chips, we performed control titrations with ATPγS and adenosine. The dissociation constants determined from those experiments were ∼20 μM for ATPγS and ∼2 mM for adenosine. […] Moreover, the immobilized ClpB discriminated between a nucleotide analog and a nucleoside, which indicated an adequate structural integrity of ClpB on the sensor chips.
# (§3) The resulting sensorgrams were analyzed using Biacore T200 Evaluation Software v3.0 according to the following procedure. Solvent correction curves were generated and applied to all data sets, and all sensorgrams were double-referenced by subtracting the most recent buffer blank injection. […]
# DnaK = molecular target: T4, DnaK (Escherichia coli, UniProt P0A6Y8); assay: DnaK binding to FITC-B2 peptide, fluorescence anisotropy; settings: FITC-B2 20 nM, increasing DBeQ
# T4 construct: full-length E. coli DnaK (residues 1–638); made in house; host or cells: E. coli BL21(DE3)
# Procedure: To monitor interactions between the peptide B2 and DnaK, the DnaK stock was diluted in buffer C (50-mM Tris-HCl, pH 7.4, 20-mM MgCl2, 1-mM EDTA, 0.5-mM TCEP) to a final concentration of 1 μM. DBeQ solutions in DMSO (20 μl) were mixed with 372 μl of 1-μM DnaK. After 10 min of incubation at room temperature, the samples were supplemented with 8 μl of 1-μM FITC-B2 in buffer C (FITC-Ahx-[…]-NH2) ([51]). The FITC-B2 sample without DnaK was used as a control. After a 30-min incubation at room temperature, fluorescence anisotropy of FITC-B2 was measured with a PerkinElmer LS55 (λexc = 485 nm (slit: 15 nm), λem = 521 (slit: 20 nm)).
# p97 = tested on: p97; design: method as in PMID 25685910; settings: cited from earlier work
# ClpB W462F = molecular target: T5, ClpB W462F (Escherichia coli, UniProt P63284, W462F); assay: Surface plasmon resonance, immobilized ClpB W462F; format: binding
# T5 construct: made in house
# Procedure: as §1, §2, §3
# [2] = Solubility of DBeQ in aqueous buffer (absorbance/turbidity); format: physicochemical; settings: aqueous ATPase assay buffer, 1% DMSO
# Procedure: Supplementary Figure 3. Solubility of DBeQ in aqueous solution. Solutions of DBeQ
# were prepared in the ATPase assay buffer containing 1% DMSO. (A) DBeQ absorbance at
# 320 nm (blue) and solution turbidity at 400 nm (red) for increasing DBeQ concentrations. (B)
# UV absorption spectrum of 100 μM DBeQ.
# Supplementary Figure 4. The ATP-binding modules (D1 and D2) separated with the
# middle domain (MD) in E. coli ClpB (PDB entry: 5OG1). Trp462 (red), Trp543 (magenta),
# and the ATP-analog, ATPγS (dark blue) bound in D1 and D2 are shown with a “stick”
# representation. Image generated using PyMOL 1.3 (Schrödinger LLC, www.pymol.com). […]
structure (smiles),measurement,setting,value
"c1ccc(CNc2nc(NCc3ccccc3)c3ccccc3n2)cc1 [DBeQ, N^2,N^4-dibenzylquinazoline-2,4-diamine]",Kd,ClpB E279Q/E678Q,0.0785 µM
same,effect on ATP-dependent binding of casein to ClpB,ClpB E279Q/E678Q; 80-μM DBeQ,did not inhibit
same,Hill number of ClpB–FITC-casein binding with DBeQ,"ClpB E279Q/E678Q; 80-μM DBeQ, 5-mM ATP",1.48
same,saturation signal of ClpB–FITC-casein binding with DBeQ,"ClpB E279Q/E678Q; 80-μM DBeQ, 5-mM ATP",0.11
same,dissociation of ClpB hexamers,ClpB hexamers,does not induce dissociation
same,solubility in aqueous buffers,[1],limited
same,Kd,ClpB W543F,59.1 ± 4.1 µM
same,"Bmax (SPR signal at saturation), ClpB W543F",ClpB W543F; SPR,1.07 ± 0.03
same,"Hill coefficient, ClpB W543F",ClpB W543F; SPR,2.4 ± 0.4
same,suppression of DnaK binding to substrate-mimicking peptide,DnaK,did not detect
same,IC50,p97,~3 µM
same,Kd,ClpB W462F,61.4 ± 4.7 µM
same,"Bmax (SPR signal at saturation), ClpB W462F",ClpB W462F; SPR,1.08 ± 0.03
same,"Hill coefficient, ClpB W462F",ClpB W462F; SPR,2.4 ± 0.4
same,DBeQ concentrations obeying Beer–Lambert law without significant turbidity increase,[2],up to 100 μM
